Reference: patent publication US20230002361A1, “2H-INDAZOLE DERIVATIVES AND THEIR USE IN THE TREATMENT OF DISEASE” (BIOGEN MA INC., priority 2019, published 2023)

Columns and labels:
IRAK4 = target: T1, IRAK4 (Homo sapiens, UniProt Q9NWZ3); assay: IRAK4 MSD Biochemical Assay (1 mM ATP, 2 h); conditions: room temperature, read-out: IRAK4 MSD Biochemical Assay (1 mM ATP, 2 h) IC50
T1 construct: with 0.1 nM IRAK4, 1.6 μM of biotinylated peptide substrate and 10 μM ATP
T1 sequence (Q9NWZ3 1-460): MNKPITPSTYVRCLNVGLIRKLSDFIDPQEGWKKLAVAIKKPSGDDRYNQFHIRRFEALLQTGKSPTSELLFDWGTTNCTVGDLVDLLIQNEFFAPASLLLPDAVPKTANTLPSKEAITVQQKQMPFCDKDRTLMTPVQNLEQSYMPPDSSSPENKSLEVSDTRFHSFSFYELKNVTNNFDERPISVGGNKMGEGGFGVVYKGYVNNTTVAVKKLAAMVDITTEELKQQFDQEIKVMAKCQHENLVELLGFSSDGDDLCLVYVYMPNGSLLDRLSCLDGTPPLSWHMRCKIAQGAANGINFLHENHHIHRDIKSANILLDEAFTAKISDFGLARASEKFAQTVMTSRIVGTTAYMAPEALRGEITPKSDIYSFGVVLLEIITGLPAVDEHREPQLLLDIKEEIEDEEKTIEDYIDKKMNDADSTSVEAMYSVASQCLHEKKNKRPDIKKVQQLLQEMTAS
Description: The 2-hour 10 μM ATP Biochemical Assay employs a MesoScale Detection (MSD) format.
The activity is quenched with 11 μl of 70 mM EDTA, pH 8.
To detect the phosphorylated biotinylated peptide substrate, 30 μl of the quenched reaction mixture is added to equivalent wells of a 384 well streptavidin coated MesoScale plate (Meso Scale Discovery #L21SA-1). After a 1 hour incubation of the plate for 1 hour at room temperature with gentle mixing, the plate wells are washed 3 times with 50 mM Tris, pH 7.5, 150 mM NaCl, 0.02% Tween-20.
A 25 μl volume of 1:500 anti-P-Threonine Rabbit polyclonal Antibody plus 1:500 Goat-anti-Rabbit Sulfo Tag Antibody (Meso Scale Discovery R32AB-1) in 50 mM Tris, pH 7.5, 150 mM NaCl, 0.02% Tween-20 plus 2% BSA is then added to each well. After a 1-hour incubation of the plate for 1 hour at room temperature with gentle mixing, the plate wells are washed, 3 times with 50 mM Tris, pH 7.5, 150 mM NaCl, 0.02% Tween-20. A 40 μl volume of 2×MSD Read Buffer (Meso Scale Discovery R92TC-1) is added to each well, and the plate is read immediately in an MSD Plate Reader (Meso Scale Discovery).
The 2-hour 1 mM ATP IRAK4 Biochemical assay was performed as described above, but with […] IRAK4 and 1 mM ATP.

MDR1 (P-gp) = target: T2, MDR1 (P-gp) (Homo sapiens, UniProt P08183); assay: MDR1-MDCK assay (efflux ratio); assay type: in vitro ADME; conditions: human, MDCK-MDR1, 1 μM compound, 120 minutes incubation; read-out: MDR1-MDCK Efflux Ratio; (B-A/A-B)
T2 construct: host or cells: MDCK cells
Description: • The assay makes use of human MDR1 transfected MDCK cells (NIH cell line in-licensed from Absorption Systems) • The compounds are tested at 1 μM concentration prepared in transport buffer (Hank's balanced salt solution with HEPES) • MDR1-MDCK cell are cultured for 7 days in 96 well transwell insert plates (Corning). Insert plates are washed before the assay and TEER (Trans epithelial electric resistance) is measured. • These plates are loaded with test compound solution 85 μL for A-B transport and 260 μL for B-A transport in the respective donor compartment.
Mass balance=100×((Vr×Cr^final)+(Vd×Cd^final))/(Vd×CE) • Where: • dCr/dt is the cumulative concentration in the receiver compartment versus time in μM s^−1 • Vr is the volume of the receiver compartment in cm^3 • Vd is the volume of the donor compartment in cm^3 • A is the area of the insert (0.143 cm^2 for 96-well insert) • CE is the estimated experimental concentration (Time=0) of the dosing solution • Cr^final is the concentration of the receiver at the end of the incubation period • Cd^final is the concentration of the donor at the end of the incubation period.

T2 sequence (P08183 whole entry): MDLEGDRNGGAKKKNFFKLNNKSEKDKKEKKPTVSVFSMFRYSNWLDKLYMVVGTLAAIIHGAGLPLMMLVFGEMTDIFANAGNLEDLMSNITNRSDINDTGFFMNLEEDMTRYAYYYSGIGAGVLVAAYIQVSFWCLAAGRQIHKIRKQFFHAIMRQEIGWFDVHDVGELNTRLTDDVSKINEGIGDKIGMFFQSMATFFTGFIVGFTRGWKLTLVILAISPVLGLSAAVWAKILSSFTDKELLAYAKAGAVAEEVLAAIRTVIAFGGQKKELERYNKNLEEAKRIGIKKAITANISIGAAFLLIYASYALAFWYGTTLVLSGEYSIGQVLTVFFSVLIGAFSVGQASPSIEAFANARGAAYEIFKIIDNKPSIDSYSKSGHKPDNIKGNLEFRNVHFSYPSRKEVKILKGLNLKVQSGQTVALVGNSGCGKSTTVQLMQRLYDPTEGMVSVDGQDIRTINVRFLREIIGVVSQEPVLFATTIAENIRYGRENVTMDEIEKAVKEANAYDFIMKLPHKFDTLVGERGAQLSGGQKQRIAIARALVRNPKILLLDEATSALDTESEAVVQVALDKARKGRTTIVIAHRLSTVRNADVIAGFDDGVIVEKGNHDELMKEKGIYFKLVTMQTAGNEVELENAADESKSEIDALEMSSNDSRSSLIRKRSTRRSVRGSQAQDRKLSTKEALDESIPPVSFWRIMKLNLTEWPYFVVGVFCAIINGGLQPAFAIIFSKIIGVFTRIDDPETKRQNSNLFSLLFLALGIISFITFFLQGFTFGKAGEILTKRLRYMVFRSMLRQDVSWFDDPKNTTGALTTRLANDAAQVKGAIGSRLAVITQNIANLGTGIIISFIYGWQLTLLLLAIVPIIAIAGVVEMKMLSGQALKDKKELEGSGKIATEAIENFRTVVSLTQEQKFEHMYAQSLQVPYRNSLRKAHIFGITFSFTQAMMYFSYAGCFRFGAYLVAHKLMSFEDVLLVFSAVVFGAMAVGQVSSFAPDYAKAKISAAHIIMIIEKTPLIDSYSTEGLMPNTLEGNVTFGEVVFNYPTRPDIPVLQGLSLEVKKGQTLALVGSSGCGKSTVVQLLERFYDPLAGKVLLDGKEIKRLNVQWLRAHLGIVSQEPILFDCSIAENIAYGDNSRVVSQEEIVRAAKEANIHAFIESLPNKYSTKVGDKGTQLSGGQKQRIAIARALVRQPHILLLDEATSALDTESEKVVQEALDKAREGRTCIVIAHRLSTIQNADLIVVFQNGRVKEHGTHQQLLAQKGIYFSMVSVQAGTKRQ

| SMILES | IC50 (IRAK4) | efflux ratio at 120 min, 1 μM (MDR1 (P-gp)) |
| --- | --- | --- |
| CC(C)Oc1cc2nn([C@]34CC[C@](C)(C3)OC4)cc2cc1C(=O)Nc1cccc(C(F)F)n1 (single isomer, unassigned) [Example 125] | 0.4 nM | 0.5 |
| CC(C)Oc1cc2nn([C@@]34CC[C@@](C)(C3)OC4)cc2cc1C(=O)Nc1cccc(C(F)F)n1 (single isomer, unassigned) [Example 126] | 0.2 nM | 0.5 |
| CC(C)Oc1cc2nn([C@]34CC[C@](C)(C3)OC4)cc2cc1C(=O)Nc1cnn2cccnc12 (single isomer, unassigned) [Example 127] | 0.4 nM | 1 |
| CC(C)Oc1cc2nn([C@@]34CC[C@@](C)(C3)OC4)cc2cc1C(=O)Nc1cnn2cccnc12 (single isomer, unassigned) [Example 128] | 0.5 nM | 1.4 |
| Cn1ccc(NC(=O)c2cc3cn(C4CCCOC4)nc3nc2OC2CCC2)n1 (single isomer, unassigned) [Example 129] | 5.7 nM | 3.4 |
| Cc1cnc2c(NC(=O)c3cc4cn(C5CCCOC5)nc4nc3OC3CCC3)cnn2c1 (single isomer, unassigned) [Example 131] | 0.2 nM | 2.6 |
| Cc1ccn2ncc(NC(=O)c3cc4cn(C5CCCOC5)nc4nc3OC3CCC3)c2n1 (single isomer, unassigned) [Example 133] | 1.7 nM | 2.6 |
| CC12CCC(n3cc4cc(C(=O)Nc5cnn6cccnc56)c(OC5CCC5)cc4n3)(CO1)C2 (single isomer, unassigned) [Example 137] | 0.2 nM | 2.1 |
| COc1cccc(NC(=O)c2cc3cn(CC4CCOC4)nc3cc2OC)n1.O=C(O)C(F)(F)F (stereo not drawn) [Example 1, 6-Methoxy-N-(6-methoxypyridin-2-yl)-2-((tetrahydrofuran-3-yl)methyl)-2H-indazole-5-carboxamide Trifluoroacetate] | 32.7 nM | 1.1 |
| COc1cc2nn(CC3CCOC3)cc2cc1C(=O)Nc1ccccn1.O=C(O)C(F)(F)F (stereo not drawn) [Example 2, 6-Methoxy-N-(pyridin-2-yl)-2-((tetrahydrofuran-3-yl)methyl)-2H-indazole-5-carboxamide trifluoroacetate] | 373 nM | 1.7 |
| COc1cccc(NC(=O)c2cc3cn(CC45COC(C)(C4)C5)nc3cc2OC)n1.O=C(O)C(F)(F)F [Example 3, 6-Methoxy-N-(6-methoxypyridin-2-yl)-2-((1-methyl-2-oxabicyclo[2.1.1]hexan-4-yl)methyl)-2H-indazole-5-carboxamide trifluoroacetate] | 10000 nM | 0.9 |
| COc1cccc(NC(=O)c2cc3cn(C4CCOC4)nc3cc2OC)n1.O=C(O)C(F)(F)F (stereo not drawn) [Example 4, 6-Methoxy-N-(6-methoxypyridin-2-yl)-2-(tetrahydrofuran-3-yl)-2H-indazole-5-carboxamide trifluoroacetate] | 3380 nM | 0.4 |
| COc1cccc(NC(=O)c2cc3cn(C4CCOCC4)nc3cc2OC)n1.O=C(O)C(F)(F)F [Example 5, 6-Methoxy-N-(6-methoxypyridin-2-yl)-2-(tetrahydro-2H-pyran-4-yl)-2H-indazole-5-carboxamide trifluoroacetate] | 21 nM | 0.6 |
| COc1cc2nn(C3CCOCC3)cc2cc1C(=O)Nc1ccccn1.O=C(O)C(F)(F)F [Example 6, 6-Methoxy-N-(pyridin-2-yl)-2-(tetrahydro-2H-pyran-4-yl)-2H-indazole-5-carboxamide trifluoroacetate] | 187 nM | 1.1 |
| COc1cccc(NC(=O)c2cc3cn(CC4CCOC4)nc3cn2)n1.O=C(O)C(F)(F)F (stereo not drawn) [Example 7, N-(6-methoxypyridin-2-yl)-2-((tetrahydrofuran-3-yl)methyl)-2H-pyrazolo[3,4-c]pyridine-5-carboxamide Trifluoroacetate] | 1390 nM | 0.6 |
